Reference: patent US20050074488A1, “Use of vitamin Ds to down regulate the renin-angiotensin-aldosterone system” (priority 2003, published 2005)

Experiments:
24(OH)ase = assay: effect of drugs on the expression of 24(OH)ase; assay type: cell-based
Description: Two observations may be noted in these studies: (1) 100% inhibition of growth was never achieved even at 1 μM of any of the test compound. Confocal microscopy studies confirm that, although these drugs are potent in inducing the translocation of VDR from cytoplasm to nucleus, not all cells respond to VDRAs even after 2 h of exposure, which may explain the <100% inhibition.

[1] = cited from earlier work
PAI-1 = assay: Western blot of PAI-1 in primary culture of human coronary artery smooth muscle cells; assay type: cell-based
renin gene promotor = assay: renin promoter-luciferase assay; assay type: cell-based; details: FIG. 2
Description: (§1) Using an in vitro system, an examination was carried out in order to determine the ability of paricalcitol to suppress renin expression. […] This inhibitory activity is confirmed by renin promoter-luciferase assays, which examine the activity of paricalcitol to suppress renin gene transcription.

renin mRNA expression = assay: Northern blot analysis of renin mRNA expression in As4.1-hVDR cells; assay type: cell-based
Description: as §1

suppressing the activity of the renin gene promotor, relative to calcitriol (renin gene promotor) | Compound | potency on stimulating the expression of 24(OH)ase relative to calcitriol (24(OH)ase) | survival benefit for CKD patients relative to calcitriol ([1]; CKD patients) | potency in the clinical studies relative to calcitriol ([1]; clinical studies) | potency in reducing the PAI level (PAI-1) | renin-inhibiting activity relative to calcitriol (renin mRNA expression; FIG. 1A and B) | inhibition of renin mRNA expression (renin mRNA expression; Northern blot, FIG. 1)
as least as potent as calcitriol | C[C@H](/C=C/[C@H](C)C(C)(C)O)[C@H]1CC[C@H]2/C(=C/C=C3C[C@@H](O)C[C@H](O)C3)CCC[C@]12C [paricalcitol] | less potent than calcitriol | more profound for paricalcitol over calcitriol | less potent than calcitriol | equally potent | a bit more potent than calcitriol | dose-dependently inhibits renin mRNA expression
 | C=C1/C(=C\C=C2/CCC[C@]3(C)[C@@H]([C@H](C)CCCC(C)(C)O)CC[C@@H]23)C[C@@H](O)C[C@@H]1O [calcitriol] |  |  |  | equally potent |  | 
